In brackets after ≈: the same amount, converted by molar mass.
Key:
[1] = in words; material disclosed in CN103108859; cited from earlier work
[2] = Solubility of the hole transporting material in NMP; type: physicochemical; settings: N-methylpyrrolidone

| solubility in NMP [2] | Compound | solubility [1] |
| --- | --- | --- |
| 2.5 mg/mL (≈ 2.95 mM) | c1ccc(-c2ccc(N(c3ccc(-c4ccccc4)cc3)c3ccc(-c4ccc(N(c5ccc(-c6ccccc6)cc5)c5ccc(-c6ccccc6)cc5)c5c4CCCC5)cc3)cc2)cc1 [Comparative Example 3, reference compound] |  |
| 12 mg/mL (≈ 13.1 mM) | CC(C)c1ccc(-c2ccc(N(c3ccc(-c4ccccc4)cc3)c3ccc(-c4ccc(N(c5ccc(-c6ccccc6)cc5)c5ccc(-c6ccc(C(C)C)cc6)cc5)c(C(C)C)c4)cc3)cc2)cc1 [Example 3] |  |
| 12 mg/mL (≈ 13.5 mM) | Cc1cc(N(c2ccc(-c3ccccc3)cc2)c2ccc(-c3ccc(C(C)C)cc3)cc2)ccc1-c1ccc(N(c2ccc(-c3ccccc3)cc2)c2ccc(-c3ccc(C(C)C)cc3)cc2)cc1 [Example 4] |  |
| 35 mg/mL (≈ 39.4 mM) | Cc1ccc(-c2ccc(N(c3ccc(-c4cccc(C)c4)cc3)c3ccc(-c4ccc(N(c5ccc(-c6ccccc6)cc5)c5ccc(-c6ccc(C)cc6)cc5)c5c4CCCC5)cc3)cc2)cc1 [Example 9] |  |

The next lines start with the compound.

| Compound | solubility in NMP [2] | solubility [1] |
| --- | --- | --- |
| CC1(C)c2ccccc2-c2ccc(N(c3ccc4c(c3)C3(c5ccccc5-c5ccccc53)c3ccccc3-4)c3ccccc3-c3ccccc3)cc21 |  | good |
| c1ccc(-c2ccc(N(c3ccc(-c4ccccc4)cc3)c3ccc(-c4ccc(N(c5ccc(-c6ccccc6)cc5)c5ccc(-c6ccccc6)cc5)cc4)cc3)cc2)cc1 [Comparative Example 1, reference compound] | 1.2 mg/mL (≈ 1.51 mM) |  |
| Cc1cccc(-c2ccc(N(c3ccc(-c4cccc(C)c4)cc3)c3ccc(-c4cc(C)c(N(c5ccc(-c6cccc(C)c6)cc5)c5ccc(-c6cccc(C)c6)cc5)c(C)c4)cc3)cc2)c1 [Example 1] | 15 mg/mL (≈ 17.1 mM) |  |
| Cc1cccc(-c2ccc(N(c3ccc(-c4cc(C)c(N(c5ccc(-c6cccc(C)c6)c(C)c5)c5ccc(-c6cccc(C)c6)c(C)c5)c(C)c4)cc3)c3ccc(-c4cccc(C)c4)c(C)c3)cc2C)c1 [Example 2] | 25 mg/mL (≈ 26.8 mM) |  |
| Cc1cccc(-c2ccc(N(c3ccc(-c4cccc5c4CCCC5)cc3)c3ccc(-c4ccc(N(c5ccc(-c6cccc(C)c6)cc5)c5ccc(-c6cccc7c6CCCC7)cc5)c5c4CCCC5)cc3)cc2)c1 [Example 10] | 19 mg/mL (≈ 19.3 mM) |  |
| Cc1cc(N(c2ccc(-c3ccccc3)cc2)c2ccc(-c3cccc4c3CCCC4)cc2)ccc1-c1ccc(N(c2ccc(-c3ccccc3)cc2)c2ccc(-c3cccc4c3CCCC4)cc2)cc1 [Example 11] | 15 mg/mL (≈ 16.4 mM) |  |
| Cc1ccccc1-c1ccc(N(c2ccc(-c3ccccc3)cc2)c2ccc(-c3ccc(N(c4ccc(-c5ccccc5)cc4)c4ccc(-c5ccccc5C)c5c4CCCC5)c4c3CCCC4)cc2)c2c1CCCC2 [Example 12] | 21 mg/mL (≈ 21.4 mM) |  |

Source: US10700298B2, “OLED display panel and electronic device comprising the same” (SHANGHAI TIANMA AM-OLED CO., LTD., priority 2016, dated 2020)
